Results as given in ChEMBL document CHEMBL2057064, “Activation of human RNase L by 2'- and 5'-O-methylphosphonate-modified oligoadenylates” (Bioorg Med Chem Lett, 2012).
Active and inactive are the calls of the source. No cut-off for these calls is given here.

Molecular target: T1, 2-5A-dependent ribonuclease (Homo sapiens) (UniProt Q05823)
T1 sequence (whole entry): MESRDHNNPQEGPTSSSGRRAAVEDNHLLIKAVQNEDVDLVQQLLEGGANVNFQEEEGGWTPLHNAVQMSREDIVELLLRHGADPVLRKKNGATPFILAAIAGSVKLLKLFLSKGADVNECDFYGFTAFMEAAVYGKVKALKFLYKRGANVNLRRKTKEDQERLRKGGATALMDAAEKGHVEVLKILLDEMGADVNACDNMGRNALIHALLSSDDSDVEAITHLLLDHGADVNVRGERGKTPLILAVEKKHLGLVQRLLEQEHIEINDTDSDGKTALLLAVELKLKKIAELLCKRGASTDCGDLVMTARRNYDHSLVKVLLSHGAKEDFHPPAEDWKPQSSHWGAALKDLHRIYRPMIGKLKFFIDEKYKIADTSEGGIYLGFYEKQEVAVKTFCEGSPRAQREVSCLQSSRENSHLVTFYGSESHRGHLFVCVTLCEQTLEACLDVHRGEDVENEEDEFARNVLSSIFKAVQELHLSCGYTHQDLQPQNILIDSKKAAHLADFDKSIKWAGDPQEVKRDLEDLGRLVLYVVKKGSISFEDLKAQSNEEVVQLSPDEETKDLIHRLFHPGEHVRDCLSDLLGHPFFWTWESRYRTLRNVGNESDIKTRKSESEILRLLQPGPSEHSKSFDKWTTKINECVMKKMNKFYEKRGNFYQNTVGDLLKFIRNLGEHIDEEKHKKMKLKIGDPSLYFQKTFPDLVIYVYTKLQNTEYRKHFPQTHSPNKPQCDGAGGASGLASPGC
Experiment: Antagonist activity at human RNase L expressed in Escherichia coli BL21 (DE3) cells assessed as RNA cleavage using Cy5-C11-rUU-C7-BHQ2 as substrate by FRET assay in presence of natural activator pAAAA
Type: functional

inhibition, inactive:
Nc1ncnc2c1ncn2[C@@H]1O[C@H](COCP(=O)(O)O[C@H]2[C@H](O)[C@@H](COCP(=O)(O)O[C@H]3[C@H](O)[C@@H](COCP(=O)(O)O[C@@H]4[C@H](O)[C@@H](COP(=O)(O)O)O[C@H]4n4cnc5c(N)ncnc54)O[C@H]3n3cnc4c(N)ncnc43)O[C@H]2n2cnc3c(N)ncnc32)[C@@H](O)[C@@H]1O
Nc1ncnc2c1ncn2[C@@H]1O[C@H](COP(=O)(O)O[C@H]2[C@H](O)[C@@H](COCP(=O)(O)O[C@H]3[C@H](O)[C@@H](COCP(=O)(O)O[C@@H]4[C@H](O)[C@@H](COP(=O)(O)O)O[C@H]4n4cnc5c(N)ncnc54)O[C@H]3n3cnc4c(N)ncnc43)O[C@H]2n2cnc3c(N)ncnc32)[C@@H](O)[C@H]1O
Nc1ncnc2c1ncn2[C@@H]1O[C@H](COP(=O)(O)CO[C@@H]2[C@@H](O)[C@@H](COP(=O)(O)O[C@@H]3[C@H](O)[C@@H](COP(=O)(O)CO[C@@H]4[C@@H](O)[C@@H](COP(=O)(O)O)O[C@H]4n4cnc5c(N)ncnc54)O[C@H]3n3cnc4c(N)ncnc43)O[C@H]2n2cnc3c(N)ncnc32)[C@@H](O)[C@H]1O
Nc1ncnc2c1ncn2[C@@H]1O[C@H](COP(=O)(O)CO[C@@H]2[C@H](O)[C@@H](COP(=O)(O)O[C@@H]3[C@H](O)[C@@H](COP(=O)(O)CO[C@@H]4[C@H](O)[C@@H](COP(=O)(O)O)O[C@H]4n4cnc5c(N)ncnc54)O[C@H]3n3cnc4c(N)ncnc43)O[C@H]2n2cnc3c(N)ncnc32)[C@@H](O)[C@H]1O
Nc1ncnc2c1ncn2[C@@H]1O[C@H](COCP(=O)(O)O[C@@H]2[C@H](O)[C@@H](COCP(=O)(O)O[C@@H]3[C@H](O)[C@@H](COP(=O)(O)O[C@@H]4[C@H](O)[C@@H](COCP(=O)(O)O)O[C@H]4n4cnc5c(N)ncnc54)O[C@H]3n3cnc4c(N)ncnc43)O[C@H]2n2cnc3c(N)ncnc32)[C@@H](O)[C@H]1O
Nc1ncnc2c1ncn2[C@@H]1O[C@H](COP(=O)(O)O[C@@H]2[C@@H](O)[C@@H](COCP(=O)(O)O[C@@H]3[C@@H](O)[C@@H](COCP(=O)(O)O[C@@H]4[C@@H](O)[C@@H](COCP(=O)(O)O)O[C@H]4n4cnc5c(N)ncnc54)O[C@H]3n3cnc4c(N)ncnc43)O[C@H]2n2cnc3c(N)ncnc32)[C@@H](O)[C@H]1O
Nc1ncnc2c1ncn2[C@@H]1O[C@H](COCP(=O)(O)O[C@@H]2[C@H](O)[C@@H](COP(=O)(O)O[C@@H]3[C@H](O)[C@@H](COP(=O)(O)O[C@@H]4[C@@H](O)[C@@H](COCP(=O)(O)O)O[C@H]4n4cnc5c(N)ncnc54)O[C@H]3n3cnc4c(N)ncnc43)O[C@H]2n2cnc3c(N)ncnc32)[C@H](O)[C@H]1O
Nc1ncnc2c1ncn2[C@@H]1O[C@H](COCP(=O)(O)O[C@@H]2[C@H](O)[C@@H](COP(=O)(O)O[C@@H]3[C@@H](O)[C@@H](COCP(=O)(O)O[C@@H]4[C@H](O)[C@@H](COP(=O)(O)O)O[C@H]4n4cnc5c(N)ncnc54)O[C@H]3n3cnc4c(N)ncnc43)O[C@H]2n2cnc3c(N)ncnc32)[C@H](O)[C@H]1O
Nc1ncnc2c1ncn2[C@@H]1O[C@H](COP(=O)(O)O[C@@H]2[C@@H](O)[C@@H](COCP(=O)(O)O[C@@H]3[C@@H](O)[C@@H](COCP(=O)(O)O[C@@H]4[C@H](O)[C@@H](COP(=O)(O)O)O[C@H]4n4cnc5c(N)ncnc54)O[C@H]3n3cnc4c(N)ncnc43)O[C@H]2n2cnc3c(N)ncnc32)[C@@H](O)[C@H]1O
Nc1ncnc2c1ncn2[C@@H]1O[C@H](COCP(=O)(O)O[C@@H]2[C@H](O)[C@@H](COP(=O)(O)O[C@H]3[C@H](O)[C@@H](COCP(=O)(O)O[C@H]4[C@H](O)[C@@H](COCP(=O)(O)O)O[C@H]4n4cnc5c(N)ncnc54)O[C@H]3n3cnc4c(N)ncnc43)O[C@H]2n2cnc3c(N)ncnc32)[C@@H](O)[C@@H]1O
Nc1ncnc2c1ncn2[C@@H]1O[C@H](COP(=O)(O)O[C@@H]2[C@H](O)[C@@H](COP(=O)(O)O[C@@H]3[C@@H](O)[C@@H](COCP(=O)(O)O[C@@H]4[C@@H](O)[C@@H](COCP(=O)(O)O)O[C@H]4n4cnc5c(N)ncnc54)O[C@H]3n3cnc4c(N)ncnc43)O[C@H]2n2cnc3c(N)ncnc32)[C@@H](O)[C@H]1O
Nc1ncnc2c1ncn2[C@@H]1O[C@H](COCP(=O)(O)O[C@@H]2[C@H](O)[C@@H](COP(=O)(O)O[C@@H]3[C@H](O)[C@@H](COCP(=O)(O)O[C@@H]4[C@H](O)[C@@H](COP(=O)(O)O)O[C@H]4n4cnc5c(N)ncnc54)O[C@H]3n3cnc4c(N)ncnc43)O[C@H]2n2cnc3c(N)ncnc32)[C@@H](O)[C@H]1O
Nc1ncnc2c1ncn2[C@@H]1O[C@H](COP(=O)(O)O[C@@H]2[C@H](O)[C@@H](COCP(=O)(O)O[C@@H]3[C@H](O)[C@@H](COCP(=O)(O)O[C@@H]4[C@H](O)[C@@H](COCP(=O)(O)O)O[C@H]4n4cnc5c(N)ncnc54)O[C@H]3n3cnc4c(N)ncnc43)O[C@H]2n2cnc3c(N)ncnc32)[C@@H](O)[C@H]1O
Nc1ncnc2c1ncn2[C@@H]1O[C@H](COP(=O)(O)O[C@@H]2[C@H](O)[C@@H](COP(=O)(O)CO[C@H]3[C@H](O)[C@@H](COP(=O)(O)CO[C@H]4[C@H](O)[C@@H](COP(=O)(O)O)O[C@H]4n4cnc5c(N)ncnc54)O[C@H]3n3cnc4c(N)ncnc43)O[C@H]2n2cnc3c(N)ncnc32)[C@@H](O)[C@H]1O
Nc1ncnc2c1ncn2[C@@H]1O[C@H](COP(=O)(O)CO[C@H]2[C@H](O)[C@@H](COP(=O)(O)CO[C@H]3[C@H](O)[C@@H](COP(=O)(O)CO[C@H]4[C@H](O)[C@@H](COP(=O)(O)O)O[C@H]4n4cnc5c(N)ncnc54)O[C@H]3n3cnc4c(N)ncnc43)O[C@H]2n2cnc3c(N)ncnc32)[C@@H](O)[C@H]1O
Nc1ncnc2c1ncn2[C@@H]1O[C@H](COCP(=O)(O)O[C@@H]2[C@@H](O)[C@@H](COCP(=O)(O)O[C@@H]3[C@H](O)[C@@H](COP(=O)(O)O[C@@H]4[C@H](O)[C@@H](COP(=O)(O)O)O[C@H]4n4cnc5c(N)ncnc54)O[C@H]3n3cnc4c(N)ncnc43)O[C@H]2n2cnc3c(N)ncnc32)[C@H](O)[C@H]1O
Nc1ncnc2c1ncn2[C@@H]1O[C@H](COCP(=O)(O)O[C@@H]2[C@H](O)[C@@H](COP(=O)(O)O[C@@H]3[C@H](O)[C@@H](COP(=O)(O)O[C@@H]4[C@H](O)[C@@H](COCP(=O)(O)O)O[C@H]4n4cnc5c(N)ncnc54)O[C@H]3n3cnc4c(N)ncnc43)O[C@H]2n2cnc3c(N)ncnc32)[C@@H](O)[C@H]1O
Nc1ncnc2c1ncn2[C@@H]1O[C@H](COCP(=O)(O)O[C@H]2[C@H](O)[C@@H](COCP(=O)(O)O[C@@H]3[C@H](O)[C@@H](COP(=O)(O)O[C@@H]4[C@H](O)[C@@H](COP(=O)(O)O)O[C@H]4n4cnc5c(N)ncnc54)O[C@H]3n3cnc4c(N)ncnc43)O[C@H]2n2cnc3c(N)ncnc32)[C@@H](O)[C@@H]1O
Nc1ncnc2c1ncn2[C@@H]1O[C@H](COP(=O)(O)O[C@H]2[C@H](O)[C@@H](COCP(=O)(O)O[C@@H]3[C@H](O)[C@@H](COP(=O)(O)O[C@H]4[C@H](O)[C@@H](COCP(=O)(O)O)O[C@H]4n4cnc5c(N)ncnc54)O[C@H]3n3cnc4c(N)ncnc43)O[C@H]2n2cnc3c(N)ncnc32)[C@@H](O)[C@H]1O
Nc1ncnc2c1ncn2[C@@H]1O[C@H](COP(=O)(O)O[C@H]2[C@H](O)[C@@H](COCP(=O)(O)O[C@H]3[C@H](O)[C@@H](COCP(=O)(O)O[C@H]4[C@H](O)[C@@H](COCP(=O)(O)O)O[C@H]4n4cnc5c(N)ncnc54)O[C@H]3n3cnc4c(N)ncnc43)O[C@H]2n2cnc3c(N)ncnc32)[C@@H](O)[C@H]1O
Nc1ncnc2c1ncn2[C@@H]1O[C@H](COP(=O)(O)CO[C@@H]2[C@@H](O)[C@@H](COP(=O)(O)CO[C@@H]3[C@@H](O)[C@@H](COP(=O)(O)CO[C@@H]4[C@@H](O)[C@@H](COP(=O)(O)O)O[C@H]4n4cnc5c(N)ncnc54)O[C@H]3n3cnc4c(N)ncnc43)O[C@H]2n2cnc3c(N)ncnc32)[C@@H](O)[C@H]1O
Nc1ncnc2c1ncn2[C@@H]1O[C@H](COCP(=O)(O)O[C@@H]2[C@@H](O)[C@@H](COCP(=O)(O)O[C@@H]3[C@H](O)[C@@H](COP(=O)(O)O[C@@H]4[C@@H](O)[C@@H](COCP(=O)(O)O)O[C@H]4n4cnc5c(N)ncnc54)O[C@H]3n3cnc4c(N)ncnc43)O[C@H]2n2cnc3c(N)ncnc32)[C@H](O)[C@H]1O
Nc1ncnc2c1ncn2[C@@H]1O[C@H](COP(=O)(O)O[C@@H]2[C@H](O)[C@@H](COP(=O)(O)O[C@H]3[C@H](O)[C@@H](COCP(=O)(O)O[C@H]4[C@H](O)[C@@H](COCP(=O)(O)O)O[C@H]4n4cnc5c(N)ncnc54)O[C@H]3n3cnc4c(N)ncnc43)O[C@H]2n2cnc3c(N)ncnc32)[C@@H](O)[C@H]1O
